# Experiments:
# CB2 receptor = biological target: T1, CB2 receptor (Mus musculus, UniProt P47936); test: CB2 receptor binding assay ([3H] CP-55,940 displacement, mouse spleen membranes); settings: 0.8 nM [3H] CP-55,940, read-out: CB2 affinity
# T1 construct: membranes were prepared from frozen mouse spleen; from tissue; host or cells: mouse spleen
# Experimental: (§1) As used herein, “binding affinity” is represented by the IC50 value which is the concentration of an analog required to occupy the 50% of the total number (Bmax) of the receptors. The lower the IC50 value, the higher the binding affinity. […] The binding affinities (Ki) are expressed in nanomoles (nM).
# (§2) Membranes, previously frozen at −80° C., were thawed on ice. To the stirred suspension was added three volumes of TME (25 mM Tris-HCl buffer, 5 mM MgCl2 and 1 mM EDTA) at a pH 7.4. The suspension was incubated at 4° C. for 30 min. At the end of the incubation, the membranes were pelleted and washed three times with TME.
# The treated membranes were subsequently used in the binding assay described below. Approximately 30 μg of membranes were incubated in silanized 96-well microtiter plate with TME containing 0.1% essentially fatty acid-free bovine serum albumin (BSA), 0.8 nM [^3H] […] Radioactivity was detected using MicroScint 20 scintillation cocktail added directly to the dried filterplates, and the filterplates were counted using a Packard Instruments Top-Count. Nonspecific binding was assessed using 100 nM CP-55,940. […] CP-55,940, determined using buffer and 100 nM CP-55,940. The normalized data was analyzed using a 4-parameter nonlinear logistic equation to yield IC50 values. […]
# CB1 receptor = biological target: T2, CB1 receptor (Rattus norvegicus, UniProt P20272); test: CB1 receptor binding assay ([3H] CP-55,940 displacement, rat forebrain membranes); settings: CB2 (mouse spleen) versus CB1 (rat forebrain) binding affinity
# T2 construct: membranes were prepared from rat forebrain membranes; from tissue; host or cells: rat forebrain
# Experimental: as §1
# The above articles are incorporated by reference herein.
# as §2
# The treated membranes were subsequently used in the binding assay described below. Approximately 30 μg of membranes were incubated in silanized 96-well microtiter plate with TME containing 0.1% essentially fatty acid-free bovine serum albumin (BSA), 0.8 nM [^3H] […] Radioactivity was detected using MicroScint 20 scintillation cocktail added directly to the dried filterplates, and the filterplates were counted using a Packard Instruments Top-Count. Nonspecific binding was assessed using 100 nM CP-55,940. […] CP-55,940, determined using buffer and 100 nM CP-55,940. The normalized data was analyzed using a 4-parameter nonlinear logistic equation to yield IC50 values.
# [1] = system: paw-withdrawal latency to radiant heat in male Sprague-Dawley rats; test: Cannabinoid mediated antinociception: paw-withdrawal latency to a thermal nociceptive stimulus (Hargreaves method); type: in vivo; settings: rat, subcutaneous injection in plantar surface of hindpaw, in DMSO, 50 μl; FIGS. 1–13
# Experimental: Cannabinoid Mediated Antinociception.
# Method. Male Sprague-Dawley rats (Harlan; Indianapolis, Ind.) 200–300 grams at time of testing, were maintained in a climate-controlled room on a 12-h light/dark cycle (lights on at 06:00 h) and food and water were available ad libitum. All of the testing was performed in accordance with the policies and recommendations of the International Association for the Study of Pain (IASP) and the National Institutes of Health (NIH) guidelines for the handling and use of laboratory animals and received approval from the Institutional Animal Care and Use Committee (IACUC) of the University of Arizona.
# All drugs were dissolved in dimethyl sulfoxide (DMSO) and were injected subcutaneously in the plantar surface of the hindpaw in a total volume of 50 μl. DMSO given in hindpaw at this volume had no effect. The method of Hargreaves, K.; Dubner, R.; Brown, F.; Flores, C.; and Joris, J., A New Sensitive Method for Measuring Thermal Nociception in Cutaneous Hyperalgesia. […] Paw-withdrawal latency was determined by a photocell that halted both lamp and timer when the paw was withdrawn. The latency to withdrawal of the paw from the radiant heat source was determined both before and after drug or vehicle administration. […]
# T1 sequence (P47936 whole entry): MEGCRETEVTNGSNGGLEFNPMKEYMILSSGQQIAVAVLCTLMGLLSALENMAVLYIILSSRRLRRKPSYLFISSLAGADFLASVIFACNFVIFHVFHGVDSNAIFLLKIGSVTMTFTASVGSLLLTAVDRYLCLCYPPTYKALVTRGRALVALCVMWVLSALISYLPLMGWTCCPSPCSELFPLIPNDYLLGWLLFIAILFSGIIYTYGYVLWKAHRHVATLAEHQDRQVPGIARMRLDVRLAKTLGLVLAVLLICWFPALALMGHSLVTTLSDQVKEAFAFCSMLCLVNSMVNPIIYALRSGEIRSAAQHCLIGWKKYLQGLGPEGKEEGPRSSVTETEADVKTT
# T2 sequence (P20272 whole entry): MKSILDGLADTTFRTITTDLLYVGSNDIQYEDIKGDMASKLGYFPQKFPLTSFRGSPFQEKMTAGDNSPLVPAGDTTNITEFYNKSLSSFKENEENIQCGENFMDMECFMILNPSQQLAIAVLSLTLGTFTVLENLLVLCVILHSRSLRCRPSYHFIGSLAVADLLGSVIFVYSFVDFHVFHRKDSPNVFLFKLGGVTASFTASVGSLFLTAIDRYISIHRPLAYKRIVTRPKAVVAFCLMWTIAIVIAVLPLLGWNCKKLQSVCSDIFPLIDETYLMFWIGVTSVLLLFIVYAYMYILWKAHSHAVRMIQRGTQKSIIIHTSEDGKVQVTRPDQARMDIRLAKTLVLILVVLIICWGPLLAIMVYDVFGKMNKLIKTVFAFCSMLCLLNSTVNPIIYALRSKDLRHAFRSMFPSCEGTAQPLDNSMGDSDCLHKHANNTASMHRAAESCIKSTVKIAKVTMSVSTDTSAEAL
Compound,Ki (CB2 receptor),CB2 selectivity over CB1 (CB1 receptor),physiological effects in test animals including analgesia [1]
"CCCCCCC(C)(C)c1cc(O)c2c(c1)oc(=O)c1ccc(OC)cc12 [AM1710, 3-(1,1-Dimethylheptyl)-1-hydroxy-9-methoxy-6H-dibenzo[b,d]pyran-6-one]",0.49 nM,~750 fold,–
"CCCCCCC(C)(C)c1cc(O)c2c(c1)oc(=O)c1ccc(O)cc12 [AM1714, 3-(1,1-Dimethylheptyl)-1,9-dihydroxy-6H-dibenzo[b,d]pyran-6-one]",–,–,produced notable physiological effects in test animals including analgesia

# — patent publication US6995187B1, “Peripheral cannabinoid receptor (CB2) selective ligands” (University of Connecticut, priority 1999, dated 2006)
